3 molecules from patent publication US9120877B2, “Sulfated polysaccharide compound and the preparation and use thereof” (PARNELL TECHNOLOGIES PTY LTD, priority 2008, dated 2015) can be followed below.

This series in a line: Stability (degradation and discolouration) of injectable aqueous GXS formulation with antioxidants without refrigeration. Conditions: antioxidant in GXS injectable formulation, room temperature. Format: physicochemical. The text has this: In one arrangement, the injectable formulation includes a suitable antioxidant to enable the aqueous formulation to remain substantially stable (that is to resist discolouration and degradation) without refrigeration. Patent WO 2007/123800 claims a PPS formulation with “an antioxidant in the group metabisulfite, sodium bisulfate and ascorbate in a concentration of about 0.02% w/v to about 5.0% w/v” is stable without refrigeration. […] This finding supports a conclusion that GXS is a distinct entity to prior art PPS extracted from xylan.

For `O=S([O-])O.[Na+]` [Sodium bisulfite ACS Reagent, Sodium bisulfite], the “Exemplary effective concentration to achieve substantial stability of GXS injectable formulation” value (from here on “Exemplary effective concentration”) is reported as 0.5% by weight/volume.
As for `O=S(=O)([O-])CO.[Na+]` [Sodium hydroxymethane sulfonate], the “Exemplary effective concentration” value stood at 1% by weight/volume.
With `O=S([O-])S(=O)(=O)[O-].[Na+].[Na+]` [Sodium metabisulfite], the “Exemplary effective concentration” value turned out to be 0.5% by weight/volume.
